ChEMBL document CHEMBL2321817, “Detecting allosteric sites of HIV-1 reverse transcriptase by X-ray crystallographic fragment screening” (J Med Chem, 2013)
Calls of active or inactive are those of the source. The calls are words filed in the database; no cut-off is given here.

Experiments:
[1] = target: T1, Human immunodeficiency virus type 1 reverse transcriptase (Human immunodeficiency virus 1, UniProt Q72547); assay: Inhibition of wild type HIV-1 reverse transcriptase 507 site incubated after 30 mins by fluorescence assay
[2] = target: T1, Human immunodeficiency virus type 1 reverse transcriptase; assay: Inhibition of wild type HIV-1 reverse transcriptase incoming nucleotide binding site after 30 mins by fluorescence assay
[3] = target: Human immunodeficiency virus type 1 reverse transcriptase (Human immunodeficiency virus 1) (UniProt Q72547); assay: Inhibition of wild type HIV-1 reverse transcriptase knuckles site at 1 mM after 30 mins by fluorescence assay
[4] = target: T1, Human immunodeficiency virus type 1 reverse transcriptase; assay: Inhibition of wild type HIV-1 reverse transcriptase p66/p51 NNRTI adjacent binding site after 30 mins by fluorescence assay
[5] = target: Human immunodeficiency virus type 1 reverse transcriptase (Human immunodeficiency virus 1) (UniProt Q72547); assay: Inhibition of wild type HIV-1 reverse transcriptase p66/p51 399 site after 30 mins by fluorescence assay
[6] = target: T1, Human immunodeficiency virus type 1 reverse transcriptase; assay: Inhibition of wild type HIV-1 reverse transcriptase knuckles site after 30 mins by fluorescence assay
[7] = target: Human immunodeficiency virus type 1 reverse transcriptase (Human immunodeficiency virus 1) (UniProt Q72547); assay: Inhibition of wild type HIV-1 reverse transcriptase 428 site at 1 mM after 30 mins by fluorescence assay relative to control
[8] = target: Human immunodeficiency virus type 1 reverse transcriptase (Human immunodeficiency virus 1) (UniProt Q72547); assay: Inhibition of wild type HIV-1 reverse transcriptase RNase H primer grip adjacent site after 30 mins by fluorescence assay

## CN(CC(=O)N1CCCc2ccccc21)Cc1nc(=O)c2ccccc2[nH]1
[1]
  IC50: 150 µM

## CN1CCN(c2ccc(C(=O)O)cc2)CC1
[2]
  IC50: 200 µM

## NCc1ccc(OC(F)(F)F)cc1
[3]
  inhibition: inactive

## CCOC(=O)c1cnn2ccccc12
[4]
  IC50: 350 µM

## Cc1c(CO)cnn1-c1ccc(F)cc1
[5]
  inhibition: inactive

## Oc1ccc(OC(F)(F)F)cc1
[6]
  IC50: 600 µM

## NCC(=O)Nc1ccc2[nH]c(=O)[nH]c2c1
[7]
  inhibition: 30%

## Cn1ncc(C(=O)O)c1-c1ccccc1
[8]
  inhibition: inactive
